Where two headings read alike, the source gives them in different places.
Tests used:
[1] = test system: MOLM14 cells; assay: cell cycle distribution (BrdU/7-AAD flow cytometry); assay type: cell-based, human; settings: for sub-G1-phase cells: vehicle 2%; for S-phase cells: vehicle 38%; for G1-phase cells: vehicle 47%
Procedure: After cell debris was gated out using FSC/SSC parameters, 10,000 cellular events were collected per sample. Data was analyzed and fluorescence compensation performed using FlowJo software, version 10 (Tree Star, Ashland, OR). A. Representative plots from a single experiment.
Cells were pulse-labeled with 10 μM 5-bromo-2-deoxyuridine (BrdU, BD Pharmingen, San Diego, CA) for 90min (37°C), washed in PBS, then fixed in 70% ethanol (1-3d, −20°C). DNA was denatured (2 M HCl, 30min, room temperature) and neutralized (0.1 M Na2B4O7, 10min, room temperature). Cells were stained with APC-conjugated anti-BrdU antibody (BD Pharmingen) and 7-AAD (BioLegend, San Diego, CA), and analyzed by flow cytometry.

[2] = test system: primary B-ALL case #109; assay: intravenous B-ALL primagraft model
Procedure: Mice were weighed weekly and tumors measured at least twice weekly. […] Mice were euthanized when tumors reached an estimated 2000mg. […] Mice were weighed weekly and observed daily for clinical signs of severe leukemia.
Highly immunodeficient NSG mice, obtained originally from Jackson Laboratory (Bar Harbor, ME), were bred and housed in the UMSOM animal facilities, and handled in a laminar flow hood under aseptic conditions. All experiment procedures and animal care were in compliance with the NIH guidelines for the Care and Use of Laboratory Animals and approved by the UMSOM Institutional Animal Care and Use Committee. Drugs were formulated in Tween 80:ethanol (7:3, v:v) and diluted 1:10 in filtered deionized water immediately before administration. […] Mice were monitored daily and euthanized when tumors reached an estimated mass of 2000mg (using the formula: [length x width^2]/2, assuming density = 1 mg/mm^3) [56]. […] Mice were euthanized for clinical signs of severe leukemia or other severe distress [52].
Mice were weighed weekly and observed daily for clinical signs of severe

[3] = test system: MOLM14 cells; assay: apoptosis (Annexin-V/7-AAD flow cytometry); assay type: cell-based, human; settings: 24h
Procedure: (§1) A. Quantification of the percentage of early apoptotic cells (Annexin-V+/7-AAD-) from three independent experiments in which cells were stained for apoptosis with 7-AAD and Annexin-V then analyzed by flow cytometry. […] C. […] 16h after addition of drugs, cells were washed and analyzed by flow cytometry for CM-H2DCFDA fluorescence (indicating total ROS generation) in the FL1 channel. Mean Fluorescence Intensity (MFI) was normalized to that of vehicle control (0.5% DMSO) with no pretreatment. […] Viable cell counts, obtained via Trypan Blue dye exclusion, were normalized to vehicle (0.02% DMSO)-treated samples +/– pretreatment.
Cells were co-stained with […] each 7-AAD and APC-conjugated Annexin-V (BioLegend), in Annexin-V binding buffer and analyzed by flow cytometry. Caspase-3/7 activity was measured using a Caspase-Glo 3/7 Assay (Promega, Madison, WI).

[4] = test system: MOLM14 cells; assay: total ROS generation (CM-H2DCFDA flow cytometry); assay type: cell-based, human; settings: 16h
Procedure: as §1
Cells were preloaded with 5 μM 5-(and-6)-chloromethyl-2′,7′-dichlorodihydrofluorescein diacetate (CM-H2DCFDA, Life Technologies) in PBS (30min, 37°C), then washed before drug treatment. Following 16h incubation with drugs, cells were analyzed by flow cytometry.

[5] = test system: KOPN8 cells; assay: alamarBlue cytotoxicity assay, 48h; assay type: cell-based, human; settings: RPMI + 10% FBS
Procedure: (§2) Following subtraction of background fluorescence from all wells, fluorescence of drug-treated cells was normalized to that of vehicle (<0.5% DMSO)-treated cells to determine the effect of each drug concentration on viability. Each cell line was tested in triplicate and in at least three independent experiments. IC50 (concentration that inhibits cell growth by 50%) values were calculated using CompuSyn software (ComboSyn, Paramus, NJ). […] In addition several cell lines were initially cultured and tested in alternative media (Supplementary Table S2). […] Colony counts were normalized to vehicle-treated controls (100%). Three independent experiments were performed.
(§3) In most experiments, cytotoxicity was assessed using alamarBlue assays (Life Technologies, Grand Island, NY). In experiments using NAC and DFO, which can interfere with alamarBlue assay performance, Trypan Blue dye exclusion was used instead. […]
(§4) experiments performed in triplicate. […] Age refers to age […]
(§5) at the time of leukemia diagnosis of the patient from whom the cell line was derived. (–) Indicates information unavailable.
(§6) *Cell lines with FLT3/ITD mutations.
(§7) *The MV-4–11 cell line was derived from a patient with a biphenotypic B-myelomonocytic leukemia; K562 was derived […]
1A. p53 status was obtained from http://cancer.sanger.ac.uk/cell_lines/cbrowse/all and http://p53.free.fr/Database/Cancer_ cell_lines/Leukemia_cancer. html. WT: wild type. Mut: mutant. SM: single mutation. DM: double mutation. MM: multiple mutations. Fs: Frameshift mutation. Null: protein expression undetectable. […]
measured via alamarBlue assay. […]

[6] = test system: MV-4-11 cells; assay: alamarBlue cytotoxicity assay, 48h; assay type: cell-based, human; settings: RPMI + 10% FBS
Procedure: as §2, §3, §4, §5, §6, §7
(§8) 1A. p53 status was obtained from http://cancer.sanger.ac.uk/cell_lines/cbrowse/all and http://p53.free.fr/Database/Cancer_ cell_lines/Leukemia_cancer. html. WT: wild type. Mut: mutant. SM: single mutation. DM: double mutation. MM: multiple mutations. Fs: Frameshift mutation. Null: protein expression undetectable.

[7] = test system: SUPB15 cells; assay: alamarBlue cytotoxicity assay, 48h; assay type: cell-based, human
Procedure: as §2, §3, §4, §5, §6, §7, §8

[8] = test system: SEM cells; assay: alamarBlue cytotoxicity assay, 48h; assay type: cell-based, human
Procedure: as §2, §3, §4, §5, §6, §7, §8

[9] = test system: Kasumi-1 cells; assay: alamarBlue cytotoxicity assay, 48h; assay type: cell-based, human; settings: Kasumi-1 (AML), RPMI + 10% FBS
Procedure: as §2, §3, §4, §5, §6, §7, §8

[10] = test system: NALM-6 cells; assay: alamarBlue cytotoxicity assay, 48h; assay type: cell-based, human; settings: NALM-6 (B-ALL), RPMI + 10% FBS
Procedure: as §2, §3, §4, §5, §6, §7, §8

[11] = test system: RCH-ACV cells; assay: alamarBlue cytotoxicity assay, 48h; assay type: cell-based, human; settings: RCH-ACV (B-ALL), RPMI + 10% FBS
Procedure: as §2, §3, §4, §5, §6, §7, §8

[12] = test system: RS4;11 cells; assay: alamarBlue cytotoxicity assay, 48h; assay type: cell-based, human; settings: RS4;11 (B-ALL), RPMI + 10% FBS
Procedure: as §2, §3, §4, §5, §6, §7, §8

[13] = test system: HL-60 cells; assay: clonogenicity (colony formation in semi-solid medium); assay type: cell-based, human; settings: 24h pretreatment
Procedure: (§9) page 2: Supplementary Figure S3: […] hours. Two B-ALL (KOPN8, SEM) and two AML (MOLM14, THP-1) cell lines were treated with the indicated concentrations of ART- 838 or AS for 24–96 h, then viability determined as in Figure 1A. Data are represented as mean +/– SD. Supplementary Figure S4: […] Colony-forming assays were performed as in Figure 1B in A. K562 and B. HL-60 AML cell lines. Each experiment was performed once in triplicate. Data are represented as mean +/– SD.

[14] = test system: K562 cells; assay: as above; assay type: cell-based, human; settings: 24h pretreatment
Procedure: as §9

[15] = four 5-day cycles AS 150 mg/kg/d
[16] = four 5-day cycles ART-838 40 mg/kg/d

## C[C@H]1[C@H](OC(=O)CCC(=O)O)O[C@@H]2O[C@@]3(C)CC[C@H]4[C@H](C)CC[C@@H]1[C@@]24OO3 [AS, artesunate]
[1]; 5 μM AS, 24h
  sub-G1-phase cells: > 10%
  S-phase cells: < 7%
  G1-phase cells: > 61%
[2]; [15]
  body weight loss following treatment: No dose-limiting body weight loss
  extension of mean survival time: 19 days
  prolongation of mean survival time: 51%
[2]; four 5-day cycles AS 150 mg/kg/d oral gavage, vehicle 37
  Mean time to severe clinical signs of leukemia (surrogate for survival): 56
[2]; second experiment: two 5-day cycles AS 200 mg/kg/d, days 1 and 29, vehicle 28
  Mean time to severe clinical signs of leukemia (surrogate for survival): 43
[3]; AS 5 μM
  apoptosis: induced significant apoptosis
[4]; AS 5 μM
  total cellular ROS levels: significantly increased total cellular ROS levels
[5]; Homo sapiens, KOPN-8, KOPN8 (B-ALL)
  IC50: 459 ± 49 nM
[6]; Homo sapiens, MV4-11, MV-4-11 (AML/B-ALL)
  IC50: 796 ± 96 nM
[7]; Homo sapiens, SUP-B15, SUPB15 (B-ALL), 48h, RPMI + 10% FBS, read-out: IC50
  IC50: 7.82 ± 1.22 µM
[7]; Homo sapiens, SUP-B15, SUPB15, original medium RPMI + 20% FBS, read-out: IC50 in original medium
  IC50: 14.3 µM
[8]; Homo sapiens, SEM (B-ALL), 48h, RPMI + 10% FBS, read-out: IC50
  IC50: 4080 ± 1180 nM
[8]; Homo sapiens, SEM, original medium DMEM + 10% FBS, read-out: IC50 in original medium
  IC50: 18300 nM
[9]; Homo sapiens
  IC50: 1720 ± 230 nM
[10]; Homo sapiens
  IC50: 5190 ± 430 nM
[11]; Homo sapiens
  IC50: 3200 ± 540 nM
[12]; Homo sapiens
  IC50: 5420 ± 1890 nM
[13]
  clonogenicity: reduced clonogenicity
[14]
  clonogenicity: reduced clonogenicity

## C[C@@H]1CCC2[C@@H](C)[C@@H](CC(COP(=O)(Oc3ccccc3)Oc3ccccc3)C[C@H]3O[C@@H]4O[C@@]5(C)CCC6[C@H](C)CCC([C@H]3C)[C@]64OO5)O[C@@H]3O[C@@]4(C)CCC1[C@@]23OO4 (stereo partly shown) [ART-838, artemisinin-derived trioxane diphenylphosphate dimer 838]
[1]; 0.1 μM ART-838, 24h
  sub-G1-phase cells: > 10%
  S-phase cells: < 7%
  G1-phase cells: > 61%
[2]; [16]
  body weight loss following treatment: No dose-limiting body weight loss
  extension of mean survival time: 20 days
  prolongation of mean survival time: 55%
[2]; four 5-day cycles ART-838 40 mg/kg/d oral gavage, vehicle 37
  Mean time to severe clinical signs of leukemia (surrogate for survival): 57
[2]; second experiment: two 5-day cycles ART-838 50 mg/kg/d, days 1 and 29, vehicle 28
  Mean time to severe clinical signs of leukemia (surrogate for survival): 47
[3]
  fold lower concentration than AS achieving similar levels of apoptosis and caspase-3/7 activity: 50 fold
[4]; ART-838 0.1 μM
  total cellular ROS levels: significantly increased total cellular ROS levels
[5]; KOPN8 (B-ALL)
  IC50: 12 ± 2 nM
[6]; MV-4-11 (AML/B-ALL)
  IC50: 25 ± 5 nM
[7]; SUPB15 (B-ALL), 48h, RPMI + 10% FBS, read-out: IC50
  IC50: 0.026 ± 0.003 µM
[7]; SUPB15, RPMI + 20% FBS vs RPMI+10% FBS
  -Fold Difference in IC50 between media: 3.0
[7]; SUPB15, original medium RPMI + 20% FBS, read-out: IC50 in original medium
  IC50: 0.077 µM
[8]; SEM (B-ALL), 48h, RPMI + 10% FBS, read-out: IC50
  IC50: 29 ± 6 nM
[8]; SEM, DMEM + 10% FBS vs RPMI+10% FBS
  -Fold Difference in IC50 between media: 9.2
[8]; SEM, original medium DMEM + 10% FBS, read-out: IC50 in original medium
  IC50: 268 nM
[9]
  IC50: 67 ± 23 nM
[10]
  IC50: 16 ± 5 nM
[11]
  IC50: 36 ± 12 nM
[12]
  IC50: 62 ± 23 nM
[13]
  clonogenicity: reduced clonogenicity
[14]
  clonogenicity: reduced clonogenicity

From PMC4872784 (Oncotarget, 2016)
